Measurements: patent publication US20100304971A1, “HERBICIDAL COMBINATION” (Bayer CropScience AG, priority 2008, published 2010)

How the values were obtained:
[1] = tested on: Polygonum convolvulus; assay: Post-emergence action against weeds, greenhouse, visual scoring; type: in vivo; settings: 11 days after application
Description: (§1) Seeds or rhizome pieces of monocotyledonous and dicotyledonous weeds were placed in sandy loam soil in plastic pots, covered with soil and cultivated in a greenhouse under good growth conditions. Three weeks after sowing, the test plants were treated at the 2- to 4-leaf stage. The compounds according to the invention, formulated as wettable powders or as emulsion concentrates, were sprayed onto the green parts of the plants in various dosages at a water application rate of 100 to 800 I/ha (converted). After the test plants had been left to stand in the greenhouse for 10 to 28 days under optimum growth conditions, the effect of the preparations was scored visually in comparison to untreated controls.
(§2) 0%=no control 100%=complete control

[2] = tested on: Veronica persica; assay: as above; type: in vivo; settings: 11 days after application
Description: as §1, §2

CCSC(C)CC1CC(=O)C(/C(CC)=N/OC/C=C/Cl)=C(O)C1 (stereo not drawn) [Compound B2-3, clethodim]
Polygonum convolvulus Control in % ([1]; Table 4, 50 g of active ingredient/ha): 20%

CCO/N=C(\CC)C1=C(O)CC(c2c(C)cc(C)cc2C)CC1=O (stereo not drawn) [Compound B2-8, tralkoxydim]
Polygonum convolvulus Control in % ([1]; Table 5, 150 g of ai/ha): 20%

CS(=O)(=O)c1ccc(C(=O)C2C(=O)CCCC2=O)c(Cl)c1COCC1CCCO1 (stereo not drawn) [Compound B3-3, tefuryltrione]
Polygonum convolvulus Control in % ([1]; Table 3, 100 g of active ingredient/ha): 15%

CS(=O)(=O)c1ccc(C(=O)C2C(=O)CCCC2=O)c(Cl)c1COCC(F)(F)F [Compound B3-4, tembotrione]
Polygonum convolvulus Control in % ([1]; Table 1, 50 g of ai/ha): 45%

COCCOCc1nc(C(F)(F)F)ccc1C(=O)C1C(=O)C2CCC(C2)C1=O (stereo not drawn) [Compound B3-5, 3-[[2-[(2-methoxyethoxy)methyl]-6-(trifluoromethyl)pyridin-3-yl]carbonyl]bicyclo[3.2.1]octane-2,4-dione]
Veronica persica Control in % ([2]; Table 2, 25 g of ai/ha): 20%

CCOc1cc(Cl)cc(CC)c1C1=C(O)C2(CCC(OC)CC2)NC1=O (stereo not drawn) [Compound B4-1, cis-3-(4-chloro-2-ethoxy-6-ethylphenyl)-4-hydroxy-8-methoxy-1-azaspiro[4.5]dec-3-en-2-one]
Polygonum convolvulus Control in % ([1]; Table 6, 7.5 g of ai/ha): 20%

sodium salt of 2-iodo-N-[(4-methoxy-6-methyl-1,3,5-triazin-2-yl)carbamoyl]benzenesulfonamide [Compound A-2]
Veronica persica Control in % ([2]; Table 2, 2.5 g of ai/ha, 0%=no control, 100%=complete control): 5%
Polygonum convolvulus Control in % ([1]; Table 1, 2.5 g of ai/ha, 0%=no control, 100%=complete control): 10%
Polygonum convolvulus Control in % ([1]; Table 3, 2.5 g of active ingredient/ha): 20%
Polygonum convolvulus Control in % ([1]; Table 4, 2.5 g of active ingredient/ha): 0%
Polygonum convolvulus Control in % ([1]; Table 5, 2.5 g of ai/ha): 0%
Polygonum convolvulus Control in % ([1]; Table 6, 2.5 g of ai/ha): 0%
